≈ marks a conversion by molar mass, not a printed value. Read-outs that look alike come from different tables or passages of the source.
Legend:
[1] = system: Micrococcus luteus ATCC 10240; experiment: Broth microdilution MIC/MBC; type: cell-based; details: for MBC: ATCC10240
Outline: (§1)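 Broth microdilution per EUCAST and CLSI guidelines: 0.5 McFarland inocula in 0.85% NaCl added to two-fold compound dilutions (1000–0.488 µg/ml final). Media were Mueller-Hinton broth for bacteria and RPMI 1640 with MOPS for yeasts.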

[2] = system: Proteus mirabilis ATCC 12453; experiment: Broth microdilution MIC/MBC; type: cell-based; details: for MIC / MBC: ATCC12453
Outline: as §1

[3] = system: Salmonella typhimurium ATCC 14028; experiment: Broth microdilution MIC/MBC; type: cell-based; details: for MIC / MBC: Salmonella enterica
Outline: as §1

[4] = system: Staphylococcus aureus ATCC 29213; experiment: Broth microdilution MIC/MBC; type: cell-based; details: for MIC / MBC: ATCC29213
Outline: as §1

[5] = system: Staphylococcus aureus ATCC 43300; experiment: Broth microdilution MIC/MBC; type: cell-based; details: Staphylococcus aureus ATCC 43300 (MRSA)
Outline: as §1

769-P = experiment: MTT antiproliferative assay; type: cell-based, human; details: for IC50: Homo sapiens, 769-P, MTT, 24 h incubation, renal adenocarcinoma; for Selectivity Index: ratio IC50 HEK-293 / IC50 769-P
Description: (§2) The in vitro studies were performed on the reference line HEK-293 (human embryonic kidney cells, ATCC® CRL-1573™) and […] human cancer cell lines: 769-P (adenocarcinoma, renal cells, ATCC® CRL-1933™) and HepG2 (carcinoma, hepatocellular, ATCC® HB-8065™), H1563 (adenocarcinoma, non-smallcell lung cancer, ATCC® CRL-5875™), LN-229 (glioblastoma, ATCC® CRL-2611™). Cells from the 769-P and H1563 cell lines were cultured in RPMI-1640 growth medium (PAN Biotech GmbH, Aidenbach, Bayern, Germany), cells from the HEK-293 and HepG2 cell lines were cultured in EMEM growth medium (PAN Biotech GmbH, Aidenbach, Bayern, Germany), and cells from the LN-229 cell line were cultured in DMEM growth medium (PAN Biotech GmbH, Aidenbach, Bayern, Germany) in sterile 75 cm^2 culture phalcones. Fetal bovine serum (PAN Biotech GmbH, Aidenbach, Bayern, Germany) at 10% of growth medium and antibiotics (Sigma-Aldrich, Poland) (2.5 µg/mL amphotericin B, 100 µg/mL penicillin, and 100 µg/mL streptomycin) were added to all media. Cells were cultured at 37 °C in an incubator with 5% CO2 flow until a cell layer was formed. Following this, the medium was removed, and the cells were washed with 0.25% trypsin solution with 2.21 mM EDTA (Corning Incorporated, Corning, NY, USA) in order to completely remove fetal bovine serum containing trypsin inhibitor. Finally, 6 mL of complete growth medium was added, and the cells were aspirated by gentle pipetting.
(§3) The determination of inhibitory concentration (IC50) in the HEK-293, 769-P, HepG2, H1563, and LN-229 cell cultures for selected hydrazide–hydrazones was performed using the MTT assay procedure. This test was performed according to the MTT Assay ECVAM n°17 protocol manual prepared by the European Centre for the Validation of Alternative Methods (ECVAM), an entity that aims to reduce in vivo testing in favor of in vitro and in silico methods. To 96-well sterile plates, 100 μL of cell suspensions, prepared in the appropriate medium at a concentration of 3 × 10^5 cells/mL, was added using a multichannel pipette. To achieve cell adhesion to the bottom of the plates, cells were incubated for 24 h at 37 °C with 5% CO2 flow and 90% humidity. To determine the growth-inhibitory concentration, the solutions of the tested substances (19–24) were prepared at concentrations ranging from 1 µM to 500 µM, added individually to the wells following the rule of 8 wells per concentration, and the plates were again incubated for 24 h at 37 °C and with 5% CO2 addition. We also prepared a background control (200 μL of the respective growth medium) and negative control (100 μL of cells in the appropriate growth medium + 100 μL of the growth medium), which provided information on the amount of formazan formed in the untreated cells. After a 24 h incubation period, the solutions were extracted from the cells; 190 μL of growth medium and 10 μL of 5 mg/mL MTT solution (Invitrogen, Waltham, MA, USA) were added each and incubated for 4 h. After this time, all medium was removed, 100 μL of DMSO (Corning Incorporated, Corning, NY, USA) was added to each well, and absorbance measurements were performed at 550 nm using a Power Weave xs spectrophotometric microplate reader (BioTek, Winooski, VT, USA). The decrease in absorbance is equivalent to the decrease in MTT formazan production, which is due to the decrease in mitochondrial dehydrogenase activity and indicates a cytotoxic effect from the tested substances. Cell viability is expressed as a percentage as the ratio of the absorbance of test substance-treated cells to the untreated cells. The experiments were repeated three times.
(§4) The significance level was taken as p < 0.05.

H1563 = experiment: MTT antiproliferative assay; type: cell-based, human; details: for IC50: MTT, 24 h incubation, lung adenocarcinoma; for Selectivity Index: ratio IC50 HEK-293 / IC50 H1563
Description: as §2, §3, §4

LN-229 = experiment: MTT antiproliferative assay; type: cell-based, human; details: for IC50: Homo sapiens, LN-229, MTT, 24 h incubation, glioblastoma; for Selectivity Index: ratio IC50 HEK-293 / IC50 LN-229
Description: as §2, §3, §4

Row | Compound | MBC/MIC [1] | MBC [1] | MIC ([1]; ATCC10240, read-out: MIC) | MIC [2] | MIC [3] | MIC [4] | MIC [5] | IC50 (769-P) | IC50 (H1563; Homo sapiens, NCI-H1563, 24 h) | Selectivity Index (H1563) | IC50 (LN-229) | Selectivity Index (LN-229) | MBC/MIC [4] | MBC [4] | MBC [5] | MBC/MIC [5] | MBC/MIC [2] | MBC [2] | MBC/MIC [3] | MBC [3] | other results
1 | O=C(N/N=C/c1ccccc1F)c1ccc(O)cc1O [Compound 24, N-[(2-fluorophenyl)methylidene]-2,4-dihydroxybenzohydrazide] | > 1 | > 1000 µg/mL | 1000 µg/mL (≈ 3.65 mM) | > 1000 µg/mL | > 1000 µg/mL | > 1000 µg/mL | > 1000 µg/mL | > 500 µM | 200 µM | 1.94 | 199 µM | 1.94 | – | – | – | – | – | – | – | – | –
2 | O=C(N/N=C/c1ccc([N+](=O)[O-])cc1)c1ccc(O)cc1O [Compound 21, 2,4-dihydroxy-N-[(4-nitrophenyl)methylidene]benzohydrazide] | > 1 | > 1000 µg/mL | 1000 µg/mL (≈ 3.32 mM) | > 1000 µg/mL | > 1000 µg/mL | 500 µg/mL (≈ 1.66 mM) | 500 µg/mL (≈ 1.66 mM) | 12.4 µM | > 500 µM | – | 0.77 µM | – | > 2 | > 1000 µg/mL | > 1000 µg/mL | > 2 | – | – | – | – | –
3 | O=C(N/N=C/c1ccccc1[N+](=O)[O-])c1ccc(O)cc1O [Compound 19, 2,4-dihydroxy-N-[(2-nitrophenyl)methylidene]benzohydrazide] | > 1 | > 1000 µg/mL | 1000 µg/mL (≈ 3.32 mM) | 1000 µg/mL (≈ 3.32 mM) | 1000 µg/mL (≈ 3.32 mM) | 1000 µg/mL (≈ 3.32 mM) | 500 µg/mL (≈ 1.66 mM) | 45.4 µM | 65.7 µM | 2.27 × 10^3 | 130 µM | 1.14 × 10^3 | > 1 | > 1000 µg/mL | > 1000 µg/mL | > 2 | > 1 | > 1000 µg/mL | > 1 | > 1000 µg/mL | Selectivity Index (769-P): 3.29 × 10^3; IC50 (H1563): 65.6 µM
4 | O=C(N/N=C/c1ccccc1Cl)c1ccc(O)cc1O [Compound 22, N-[(2-chlorophenyl)methylidene]-2,4-dihydroxybenzohydrazide] | – | – | > 1000 µg/mL | > 1000 µg/mL | > 1000 µg/mL | > 1000 µg/mL | > 1000 µg/mL | 262 µM | 217 µM | 1.45 | 111 µM | 2.85 | – | – | – | – | – | – | – | – | Selectivity Index (769-P): 1.20
5 | O=C(N/N=C/c1cccc([N+](=O)[O-])c1)c1ccc(O)cc1O [Compound 20, 2,4-dihydroxy-N-[(3-nitrophenyl)methylidene]benzohydrazide] | – | – | > 1000 µg/mL | > 1000 µg/mL | > 1000 µg/mL | > 1000 µg/mL | > 1000 µg/mL | > 500 µM | 70.9 µM | 1.89 × 10^2 | > 500 µM | – | – | – | – | – | – | – | – | – | –
6 | O=C(N/N=C/c1ccccc1Br)c1ccc(O)cc1O [Compound 23, N-[(2-bromophenyl)methylidene]-2,4-dihydroxybenzohydrazide] | – | – | > 1000 µg/mL | > 1000 µg/mL | > 1000 µg/mL | > 1000 µg/mL | > 1000 µg/mL | > 500 µM | 101 µM | 9.08 × 10^2 | 157 µM | 5.85 × 10^2 | – | – | – | – | – | – | – | – | –
7 | CCCc1ccc(/C=N/NC(=O)c2ccc(O)cc2O)cc1 [Compound 13, 2,4-dihydroxy-N-[(4-propylphenyl)methylidene]benzohydrazide] | > 1 | > 1000 µg/mL | 1000 µg/mL (≈ 3.35 mM) | 1000 µg/mL (≈ 3.35 mM) | 1000 µg/mL (≈ 3.35 mM) | 1000 µg/mL (≈ 3.35 mM) | 1000 µg/mL (≈ 3.35 mM) | – | – | – | – | – | > 1 | > 1000 µg/mL | > 1000 µg/mL | > 1 | > 1 | > 1000 µg/mL | > 1 | > 1000 µg/mL | –
8 | O=C(N/N=C/c1cc(I)cc(I)c1O)c1ccc(O)cc1O [Compound 18, 2,4-dihydroxy-N-[(2-hydroxy-3,5-diiodophenyl)methylidene]benzohydrazide] | 4 | 1.95 µg/mL (≈ 0.00372 mM) | 0.48 µg/mL (≈ 0.000916 mM) | 500 µg/mL (≈ 0.954 mM) | 1000 µg/mL (≈ 1.91 mM) | 7.81 µg/mL (≈ 0.0149 mM) | 3.91 µg/mL (≈ 0.00746 mM) | – | – | – | – | – | 2 | 15.6 µg/mL (≈ 0.0298 mM) | 31.2 µg/mL (≈ 0.0596 mM) | 8 | > 2 | > 1000 µg/mL | > 1 | > 1000 µg/mL | MIC [1]: 0.48 µg/mL (≈ 0.000916 mM)

From PMC10743905, “Design, Synthesis, and In Vitro and In Vivo Bioactivity Studies of Hydrazide–Hydrazones of 2,4-Dihydroxybenzoic Acid” (International Journal of Molecular Sciences, 2023)
